From US20220289698A1, “INHIBITORS OF HUMAN ATGL” (Karl-Franzens-Universität Graz, priority 2019, published 2022)

Assays:
human ATGL = molecular target: T1, human ATGL (Homo sapiens, UniProt Q96AD5); test: TG hydrolase activity, Expi cell lysates expressing human ATGL + CGI-58, radiolabelled triolein; format: biochemical; details: Example 237; read-out: Inhibition of human ATGL − IC50
T1 construct: made in house; host or cells: Expi cells (lysate, not purified)
T1 sequence (Q96AD5 1-504): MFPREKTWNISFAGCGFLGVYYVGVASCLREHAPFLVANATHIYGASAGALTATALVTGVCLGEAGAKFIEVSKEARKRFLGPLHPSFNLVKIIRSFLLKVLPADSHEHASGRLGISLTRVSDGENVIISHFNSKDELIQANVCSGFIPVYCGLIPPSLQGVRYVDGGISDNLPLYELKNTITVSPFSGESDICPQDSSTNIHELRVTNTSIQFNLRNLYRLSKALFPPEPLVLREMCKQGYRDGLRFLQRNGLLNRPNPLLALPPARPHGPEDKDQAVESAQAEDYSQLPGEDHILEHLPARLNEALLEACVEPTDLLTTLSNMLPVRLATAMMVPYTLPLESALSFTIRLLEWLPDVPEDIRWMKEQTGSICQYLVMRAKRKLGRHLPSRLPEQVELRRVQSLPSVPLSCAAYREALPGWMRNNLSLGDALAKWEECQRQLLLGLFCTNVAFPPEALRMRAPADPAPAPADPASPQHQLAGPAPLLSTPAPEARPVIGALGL
Description: (§1) Triglyceride (TG) hydrolase activity was measured as previously described (Schweiger M et al., Methods in Enzymology, 2014, 538:171-93). In brief, TG hydrolase activity was determined by adding recombinant purified CGI-58 to Expi cell lysates expressing human ATGL. For determination of cross-species reactivity Expi lysates expressing ATGL from different model organisms (e.g. mouse, rat, rhesus monkey, goat, etc.) were used. Samples were incubated with DMSO (carrier) or increasing concentrations of ATGL inhibitors dissolved in DMSO. TG substrate was prepared by emulsifying 330 μM radiolabelled triolein (40,000 c.p.m./nmol) and 45 μM phosphatidylcholine/phosphatidylinositol (3:1) in 100 mM potassium phosphate buffer (pH 7.0) by sonication and adjusting to 5% essentially FA-free BSA. TG substrate was added to the reaction mixture and incubated for 1 h at 37° C. in the water bath. The reaction was terminated by adding methanol/chloroform/heptane (10:9:7) and 0.1 M potassium carbonate with 0.1 M boric acid (pH 10.5). After centrifugation at 800 g for 15 min the radioactivity in the upper phase was determined by liquid scintillation counting and the rate of FA hydrolysis was calculated. IC50 values were determined as inhibitor concentration capable of inhibiting TG hydrolase activity by 50% as compared to DMSO control. Samples were measured as duplicates. The determination of IC50 values for human ATGL is illustrated in FIG. 1.

murine ATGL = molecular target: T2, murine ATGL (Mus musculus, UniProt Q8BJ56); test: TG hydrolase activity, Expi lysates expressing mouse ATGL + CGI-58, radiolabelled triolein; format: biochemical; details: 50 μM compound; Example 237; read-out: Inhibition of murine ATGL at 50 μM − mean [%]
T2 construct: made in house; host or cells: Expi cells (lysate)
T2 sequence (Q8BJ56 1-486): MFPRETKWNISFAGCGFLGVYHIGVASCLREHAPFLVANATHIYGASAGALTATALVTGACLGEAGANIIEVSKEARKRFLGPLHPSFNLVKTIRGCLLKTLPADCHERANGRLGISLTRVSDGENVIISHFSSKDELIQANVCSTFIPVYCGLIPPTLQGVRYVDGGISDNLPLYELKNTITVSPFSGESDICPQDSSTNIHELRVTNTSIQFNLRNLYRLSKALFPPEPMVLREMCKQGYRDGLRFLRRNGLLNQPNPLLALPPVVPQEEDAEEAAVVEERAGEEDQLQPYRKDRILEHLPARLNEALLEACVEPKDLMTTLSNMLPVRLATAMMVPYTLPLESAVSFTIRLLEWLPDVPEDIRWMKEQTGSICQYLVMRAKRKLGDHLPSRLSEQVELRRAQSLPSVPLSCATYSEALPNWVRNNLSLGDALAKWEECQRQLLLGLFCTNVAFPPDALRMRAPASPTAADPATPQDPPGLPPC
Description: as §1
Lysates from Expi cells overexpressing ATGL from mouse (Mus musculus) were incubated with recombinant purified ATGL co-activator CGI-58 and ATGL inhibitors at 50 μM. Subsequently, substrate containing radiolabeled triolein was added and liberated FA were extracted and quantified by liquid scintillation. Inhibitors were dissolved in DMSO which was used as control. Samples were measured in triplicates.

melting point [°C]	IC50 (human ATGL) [µM]	inhibition at 50 µM (murine ATGL) [%]	Structure (SMILES)
101 to 106	–	–	CCOc1ccc(-c2cccc(C(=O)OCc3ccncc3)n2)cc1 [Example 194, Pyridin-4-ylmethyl 6-(4-ethoxyphenyl)picolinate]
73 to 76	–	–	CCOc1ccc(-c2cccc(C(=O)OCCc3ccsc3)n2)cc1 [Example 196, 2-(Thiophen-3-yl)ethyl 6-(4-ethoxyphenyl)picolinate]
61 to 63	–	–	CCOc1ccc(-c2cccc(C(=O)OCCCO)n2)cc1 [Example 5]
127 to 131	–	–	CCOC(=O)c1cccc(-c2ccc(-c3ccncc3)cc2)n1 [Example 50]
73 to 78	–	–	CCOc1ccc(-c2cccc(C(=O)OCCc3cccs3)n2)cc1 [Example 195, 2-(Thiophen-2-yl)ethyl 6-(4-ethoxyphenyl)picolinate]
75 to 80	–	–	CCOc1ccc(-c2cccc(C(=O)OCc3cncs3)n2)cc1 [Example 199, Thiazol-5-ylmethyl 6-(4-ethoxyphenyl)picolinate]
80 to 82	–	–	CCOc1ccc(-c2cccc(C(=O)OCCc3ccccc3)n2)cc1 [Example 74]
89 to 92	–	–	CCOc1ccc(-c2cccc(C(=O)OCC(C)(C)C)n2)cc1 [Example 4]
124 to 127	–	–	CCOc1ccc(-c2cccc(C(=O)OCc3ccccn3)n2)cc1 [Example 192, Pyridin-2-ylmethyl 6-(4-ethoxyphenyl)picolinate]
109 to 111	–	–	CCOc1ccc(-c2cccc(C#N)n2)cc1 [NG-437]
82 to 84	–	–	CCOc1ccc(-c2cccc(C(=O)OCCc3ccco3)n2)cc1 [Example 191, 2-(Furan-2-yl)ethyl 6-(4-ethoxyphenyl)picolinate]
80 to 81	–	–	CCOc1ccc(-c2cccc(C(=O)OCc3ccccc3)n2)cc1 [Example 22]
120 to 123	–	–	CCOc1ccc(-c2ccc(OC(C)=O)c(C(=O)OC)n2)cc1 [NG-477]
100 to 101	–	–	CCOc1ccc(-c2cccc(C(F)(F)F)n2)cc1 [NG-622]
112 to 113	–	–	C#C[C@H](C)OC(=O)c1cccc(-c2ccc(CCC)cc2)n1 [Example 72]
–	3	30	C=CCOC(=O)c1csc(-c2ccc(OCC)cc2)n1 [Example 147, Allyl 2-(4-ethoxyphenyl)thiazole-4-carboxylate]
154 to 157	–	–	CC(C)OC(=O)c1cccc(-c2ccc(O)cc2)n1 [Example 10]
80 to 86	–	–	CCOc1ccc(-c2cccc(C(C)=O)n2)cc1 [NG-631]
107 to 110	–	–	CCOc1ccc(-c2cccc(C(=O)OCc3cccnc3)n2)cc1 [Example 193, Pyridin-3-ylmethyl 6-(4-ethoxyphenyl)picolinate]
90 to 91	–	–	CCOC(=O)Cc1cccc(-c2ccc(OCC)cc2)n1 [NG-640]
36 to 38	–	–	CCOc1ccc(-c2cccc(C(=O)OCCCOC)n2)cc1 [Example 3]
–	3	13.1	CC(C)OC(=O)c1cccc(-c2ccc(OC(C)C)cc2)n1 [Example 95]
114 to 116	–	–	CCOc1ccc(-c2ccc(O)c(C(=O)OC)n2)cc1 [NG-461]
42 to 46	–	–	CCOC(=O)c1cccc(-c2ccccc2)n1 [Example 39]

Second part, the compound before the results:

Structure (SMILES)	melting point [°C]	IC50 (human ATGL) [µM]	inhibition at 50 µM (murine ATGL) [%]
CC(C)OC(=O)c1cccc(-c2ccc(Cl)c(Cl)c2)n1 [NG-481]	74 to 76	–	–
COC(=O)c1cccc(-c2ccc(C(F)(F)F)cc2)n1 [Example 78]	95 to 96	–	–
CC(C)OC(=O)c1cccc(C#Cc2ccccc2)n1 [Example 79]	85 to 86	–	–
CC(C)OC(=O)c1cccc(-c2ccc(C(C)(C)C)cc2)n1 [Example 60]	104 to 106	–	–
CC(C)OC(=O)c1cccc(-c2ccc(C(F)(F)F)cc2F)n1 [NG-587]	96 to 97	–	–
CCOC(=O)c1csc(-c2ccc(C(F)(F)F)cc2)n1 [Example 183, Ethyl 2-(4-(trifluoromethyl)phenyl)thiazole-4-carboxylate]	100	–	–
CC(C)OC(=O)c1cccc(-c2ccc(N(C)C)cc2)n1 [Example 17]	134 to 140	–	–
CCC(C)c1ccc(-c2cc(OC)cc(C(=O)OC(C)C)n2)cc1 (stereo not drawn) [Example 56]	–	7	0
C=CCOC(=O)c1cccc(-c2ccc(C(F)(F)F)cc2)n1 [Example 82]	79 to 80	–	–
CCOc1ccc(-c2nc(C(=O)OCC=C(C)C)cs2)cc1 [Example 143, 3-Methylbut-2-en-1-yl 2-(4-ethoxyphenyl)thiazole-4-carboxylate]	–	20	16.8
CCOC(=O)c1csc(-c2ccc(O)cc2)n1 [Example 188, Ethyl 2-(4-hydroxyphenyl)thiazole-4-carboxylate]	171	–	–
CCOc1ccc(-c2nc(C(=O)OC3CCCC3)cs2)cc1 [Example 127, Cyclopentyl 2-(4-ethoxyphenyl)thiazole-4-carboxylate]	–	5	0
CCOC(=O)c1csc(-c2ccc(OC)cc2)n1 [Example 102, Ethyl 2-(4-methoxyphenyl)thiazole-4-carboxylate]	–	6	21.5
CCOC(=O)c1nc(-c2ccc(OCC)cc2)sc1OC [Example 126, Ethyl 2-(4-ethoxyphenyl)-5-methoxythiazole-4-carboxylate]	–	5	2.2
CCOc1ccc(-c2nc(C(=O)OC3CCC3)cs2)cc1 [Example 129, Cyclobutyl 2-(4-ethoxyphenyl)thiazole-4-carboxylate]	–	6	5.1
CCCCCCOc1ccc(-c2nc(C(=O)OCC)cs2)cc1 [Example 111, Ethyl 2-(4-(hexyloxy)phenyl)thiazole-4-carboxylate]	–	25	0
CCOC(=O)c1csc(-c2ccc(SCC)cc2)n1 [Example 98, Ethyl 2-(4-(ethylthio)phenyl)thiazole-4-carboxylate]	–	12	0
CCOC(=O)c1csc(-c2ccc(OC(C)CC)cc2)n1 (stereo not drawn) [Example 112, Ethyl 2-(4-(sec-butoxy)phenyl)thiazole-4-carboxylate]	–	10	1.3
CCCC(C)OC(=O)c1csc(-c2ccc(OCC)cc2)n1 (stereo not drawn) [Example 117, Pentan-2-yl 2-(4-ethoxyphenyl)thiazole-4-carboxylate]	–	3	7.4
CCOC(=O)c1csc(-c2ccc(OCC(F)(F)F)cc2)n1 [Example 108, Ethyl 2-(4-(2,2,2-trifluoroethoxy)phenyl)thiazole-4-carboxylate]	–	5	8
CON(C)C(=O)c1ccc(-c2cccc(C(=O)OC(C)C)n2)cc1 [Example 77]	–	5	0
CCOC(=O)c1csc(-c2ccc(N(C)C)cc2)n1 [Example 103, Ethyl 2-(4-(dimethylamino)phenyl)thiazole-4-carboxylate]	–	25	33.9
CCOc1ccc(-c2nc(C(=O)OC)cs2)cc1 [Example 122, Methyl 2-(4-ethoxyphenyl) thiazole-4-carboxylate]	–	8	2.1
